In ChEMBL document CHEMBL3627608, “Crystal structures of human RIP2 kinase catalytic domain complexed with ATP-competitive inhibitors: Foundations for understanding inhibitor selectivity” (Bioorg Med Chem, 2015) one finds inhibition data, which are given here for 3 compounds.

As usually defined, the inhibition is the drop in the measured response relative to a control, in per cent.

SMILES strings stand for the structures.

Test [1] deals with T1, Serine/threonine-protein kinase LATS1 (Homo sapiens) (UniProt O95835).
T1 sequence (whole entry): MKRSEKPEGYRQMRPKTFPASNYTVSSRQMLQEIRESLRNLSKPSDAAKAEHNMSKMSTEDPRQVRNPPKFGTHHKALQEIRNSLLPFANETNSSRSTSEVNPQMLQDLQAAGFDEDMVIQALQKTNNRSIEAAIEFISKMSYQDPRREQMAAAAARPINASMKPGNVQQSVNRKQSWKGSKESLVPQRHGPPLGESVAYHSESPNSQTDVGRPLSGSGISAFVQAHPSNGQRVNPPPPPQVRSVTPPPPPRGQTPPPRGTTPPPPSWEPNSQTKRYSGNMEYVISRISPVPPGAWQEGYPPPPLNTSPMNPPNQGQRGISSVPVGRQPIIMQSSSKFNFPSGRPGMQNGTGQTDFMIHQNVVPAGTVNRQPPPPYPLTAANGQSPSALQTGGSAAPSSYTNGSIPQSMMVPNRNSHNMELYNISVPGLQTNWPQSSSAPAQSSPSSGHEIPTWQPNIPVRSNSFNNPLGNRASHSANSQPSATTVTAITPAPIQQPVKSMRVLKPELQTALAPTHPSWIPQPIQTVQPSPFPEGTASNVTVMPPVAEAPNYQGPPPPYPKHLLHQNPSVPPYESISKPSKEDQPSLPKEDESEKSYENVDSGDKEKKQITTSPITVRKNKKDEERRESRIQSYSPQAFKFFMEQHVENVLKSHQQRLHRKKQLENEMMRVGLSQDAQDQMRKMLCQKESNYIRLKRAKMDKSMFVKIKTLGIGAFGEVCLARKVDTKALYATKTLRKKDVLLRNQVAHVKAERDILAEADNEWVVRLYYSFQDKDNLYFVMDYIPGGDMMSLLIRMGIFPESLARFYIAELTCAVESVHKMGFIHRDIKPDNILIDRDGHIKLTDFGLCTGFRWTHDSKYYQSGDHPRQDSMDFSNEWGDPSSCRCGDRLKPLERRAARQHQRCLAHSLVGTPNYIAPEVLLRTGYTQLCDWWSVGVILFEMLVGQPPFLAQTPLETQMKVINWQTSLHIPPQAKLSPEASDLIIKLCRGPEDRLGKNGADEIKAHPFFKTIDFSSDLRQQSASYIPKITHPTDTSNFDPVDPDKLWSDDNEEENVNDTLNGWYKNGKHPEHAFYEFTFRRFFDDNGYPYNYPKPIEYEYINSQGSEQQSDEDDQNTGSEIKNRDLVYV
The experiment in a line: Inhibition of LATS (unknown origin) at 10 uM after 120 mins P33 radiolabeled kinase activity assay.

The target in test [2] is CDK2/Cyclin A1 (Homo sapiens) (UniProt P24941+P78396). The experiment in a line: Inhibition of CDK2/Cyclin A1 (unknown origin) at 10 uM after 120 mins P33 radiolabeled kinase activity assay. In kind it is protein-complex assay.
For test [3], the target named is T2, Ephrin type-A receptor 6 (Homo sapiens) (UniProt Q9UF33).
T2 sequence (whole entry): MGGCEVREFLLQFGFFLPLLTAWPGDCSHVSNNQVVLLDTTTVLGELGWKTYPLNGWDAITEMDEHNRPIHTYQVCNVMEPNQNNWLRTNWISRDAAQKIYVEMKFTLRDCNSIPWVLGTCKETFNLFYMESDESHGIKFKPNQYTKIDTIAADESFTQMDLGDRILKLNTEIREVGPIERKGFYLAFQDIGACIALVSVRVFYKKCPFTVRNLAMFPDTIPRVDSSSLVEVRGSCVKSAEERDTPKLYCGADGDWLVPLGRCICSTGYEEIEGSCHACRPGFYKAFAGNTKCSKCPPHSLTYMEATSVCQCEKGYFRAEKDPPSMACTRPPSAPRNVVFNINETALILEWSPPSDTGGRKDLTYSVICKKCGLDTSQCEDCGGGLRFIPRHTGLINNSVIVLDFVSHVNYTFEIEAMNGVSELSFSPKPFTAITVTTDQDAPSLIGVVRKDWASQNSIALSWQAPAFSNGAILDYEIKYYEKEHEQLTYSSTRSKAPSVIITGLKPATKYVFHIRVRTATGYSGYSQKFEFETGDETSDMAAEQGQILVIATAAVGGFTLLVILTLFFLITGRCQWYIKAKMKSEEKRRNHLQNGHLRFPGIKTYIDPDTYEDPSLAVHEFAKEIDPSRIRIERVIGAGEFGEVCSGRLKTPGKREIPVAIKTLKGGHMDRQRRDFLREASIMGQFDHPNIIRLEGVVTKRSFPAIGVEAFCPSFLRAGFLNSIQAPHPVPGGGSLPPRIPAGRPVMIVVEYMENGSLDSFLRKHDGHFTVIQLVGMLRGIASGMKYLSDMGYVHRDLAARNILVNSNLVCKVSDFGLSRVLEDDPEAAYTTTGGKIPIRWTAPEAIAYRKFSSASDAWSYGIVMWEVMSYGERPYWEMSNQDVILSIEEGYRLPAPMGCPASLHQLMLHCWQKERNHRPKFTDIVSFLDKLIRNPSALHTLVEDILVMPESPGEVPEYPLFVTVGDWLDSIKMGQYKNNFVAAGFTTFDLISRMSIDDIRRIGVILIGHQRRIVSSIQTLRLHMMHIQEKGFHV
The experiment in a line: Inhibition of EPHA6 (unknown origin) at 10 uM after 120 mins P33 radiolabeled kinase activity assay.

In test [4] the target is Cyclin-dependent kinase 14 (Homo sapiens) (UniProt O94921). The experiment in a line: Inhibition of PFTK1 (unknown origin) at 10 uM after 120 mins P33 radiolabeled kinase activity assay.
In test [5] the target is Calcium/calmodulin-dependent protein kinase type II subunit beta (Homo sapiens) (UniProt Q13554). The experiment in a line: Inhibition of CAMK2beta (unknown origin) at 10 uM after 120 mins P33 radiolabeled kinase activity assay.
For test [6], the target named is Cyclin-dependent kinase 2 (Homo sapiens) (UniProt P24941). In words: Inhibition of CDK2 (unknown origin) at 10 uM after 120 mins P33 radiolabeled kinase activity assay.
In test [7] the target is Epidermal growth factor receptor (Homo sapiens) (UniProt P00533). The experiment in a line: Inhibition of EGFR (unknown origin) at 10 uM after 120 mins P33 radiolabeled kinase activity assay.
Test [8] addresses Mitogen-activated protein kinase kinase kinase 10 (Homo sapiens) (UniProt Q02779). In words: Inhibition of MLK2 (unknown origin) at 10 uM after 120 mins P33 radiolabeled kinase activity assay.
Test [9] addresses Cyclin-dependent kinase 5/CDK5 activator 1 (Homo sapiens) (UniProt Q00535+Q15078). The experiment in a line: Inhibition of CDK5/p25 (unknown origin) at 10 uM after 120 mins P33 radiolabeled kinase activity assay. In kind it is protein-complex assay.
Test [10] addresses Mast/stem cell growth factor receptor Kit (Homo sapiens) (UniProt P10721). The experiment in a line: Inhibition of c-Kit (unknown origin) at 10 uM after 120 mins P33 radiolabeled kinase activity assay.

Sequence of Epidermal growth factor receptor (Homo sapiens) (P00533 whole entry): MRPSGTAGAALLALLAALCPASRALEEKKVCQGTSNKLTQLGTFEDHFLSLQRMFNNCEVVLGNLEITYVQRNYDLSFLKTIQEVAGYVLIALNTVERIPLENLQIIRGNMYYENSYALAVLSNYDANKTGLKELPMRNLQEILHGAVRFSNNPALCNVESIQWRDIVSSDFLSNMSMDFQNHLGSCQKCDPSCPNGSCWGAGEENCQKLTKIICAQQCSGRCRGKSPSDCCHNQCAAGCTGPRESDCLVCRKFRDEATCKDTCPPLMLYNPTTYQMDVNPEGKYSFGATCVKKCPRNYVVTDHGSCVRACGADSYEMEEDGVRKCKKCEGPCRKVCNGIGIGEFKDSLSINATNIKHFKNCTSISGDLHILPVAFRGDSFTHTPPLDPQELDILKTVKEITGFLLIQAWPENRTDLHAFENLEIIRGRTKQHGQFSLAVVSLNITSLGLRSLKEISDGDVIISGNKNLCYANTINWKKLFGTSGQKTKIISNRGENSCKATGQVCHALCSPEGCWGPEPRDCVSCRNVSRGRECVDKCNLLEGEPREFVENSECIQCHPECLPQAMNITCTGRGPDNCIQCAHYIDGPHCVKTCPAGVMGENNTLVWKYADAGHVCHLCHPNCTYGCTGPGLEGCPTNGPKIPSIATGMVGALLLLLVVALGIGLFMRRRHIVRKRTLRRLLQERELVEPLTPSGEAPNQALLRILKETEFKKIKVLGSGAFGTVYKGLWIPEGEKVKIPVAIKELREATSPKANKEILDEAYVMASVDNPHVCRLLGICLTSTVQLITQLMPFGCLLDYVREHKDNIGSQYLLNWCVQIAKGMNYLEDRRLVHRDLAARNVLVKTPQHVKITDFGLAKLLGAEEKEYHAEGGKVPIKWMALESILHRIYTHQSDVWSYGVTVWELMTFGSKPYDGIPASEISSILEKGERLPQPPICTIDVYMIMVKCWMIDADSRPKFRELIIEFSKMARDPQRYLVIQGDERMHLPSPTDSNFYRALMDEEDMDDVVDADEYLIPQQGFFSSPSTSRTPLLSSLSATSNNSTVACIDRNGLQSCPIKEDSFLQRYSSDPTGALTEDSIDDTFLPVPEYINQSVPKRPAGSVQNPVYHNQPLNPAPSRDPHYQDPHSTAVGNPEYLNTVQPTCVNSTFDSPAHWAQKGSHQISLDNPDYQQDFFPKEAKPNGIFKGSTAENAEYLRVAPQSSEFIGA
Sequence of Calcium/calmodulin-dependent protein kinase type II subunit beta (Homo sapiens) (Q13554 whole entry): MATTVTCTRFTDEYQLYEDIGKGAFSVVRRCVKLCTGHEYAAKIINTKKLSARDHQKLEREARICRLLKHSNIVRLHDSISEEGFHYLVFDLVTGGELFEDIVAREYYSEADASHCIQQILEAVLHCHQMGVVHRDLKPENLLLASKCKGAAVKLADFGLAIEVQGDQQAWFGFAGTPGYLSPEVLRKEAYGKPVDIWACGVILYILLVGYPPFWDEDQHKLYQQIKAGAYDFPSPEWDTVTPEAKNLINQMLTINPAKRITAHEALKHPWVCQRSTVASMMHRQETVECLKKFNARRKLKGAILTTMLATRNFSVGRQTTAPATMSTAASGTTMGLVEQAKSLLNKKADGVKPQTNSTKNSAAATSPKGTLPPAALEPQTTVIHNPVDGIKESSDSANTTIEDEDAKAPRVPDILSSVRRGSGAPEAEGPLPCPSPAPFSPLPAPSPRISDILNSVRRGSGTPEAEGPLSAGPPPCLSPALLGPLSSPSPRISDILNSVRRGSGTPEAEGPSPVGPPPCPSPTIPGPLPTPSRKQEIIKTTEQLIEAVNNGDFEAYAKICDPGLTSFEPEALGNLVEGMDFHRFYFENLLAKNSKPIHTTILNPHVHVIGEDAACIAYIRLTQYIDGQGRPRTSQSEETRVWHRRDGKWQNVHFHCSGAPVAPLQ
Sequence of Mitogen-activated protein kinase kinase kinase 10 (Homo sapiens) (Q02779 whole entry, looked up): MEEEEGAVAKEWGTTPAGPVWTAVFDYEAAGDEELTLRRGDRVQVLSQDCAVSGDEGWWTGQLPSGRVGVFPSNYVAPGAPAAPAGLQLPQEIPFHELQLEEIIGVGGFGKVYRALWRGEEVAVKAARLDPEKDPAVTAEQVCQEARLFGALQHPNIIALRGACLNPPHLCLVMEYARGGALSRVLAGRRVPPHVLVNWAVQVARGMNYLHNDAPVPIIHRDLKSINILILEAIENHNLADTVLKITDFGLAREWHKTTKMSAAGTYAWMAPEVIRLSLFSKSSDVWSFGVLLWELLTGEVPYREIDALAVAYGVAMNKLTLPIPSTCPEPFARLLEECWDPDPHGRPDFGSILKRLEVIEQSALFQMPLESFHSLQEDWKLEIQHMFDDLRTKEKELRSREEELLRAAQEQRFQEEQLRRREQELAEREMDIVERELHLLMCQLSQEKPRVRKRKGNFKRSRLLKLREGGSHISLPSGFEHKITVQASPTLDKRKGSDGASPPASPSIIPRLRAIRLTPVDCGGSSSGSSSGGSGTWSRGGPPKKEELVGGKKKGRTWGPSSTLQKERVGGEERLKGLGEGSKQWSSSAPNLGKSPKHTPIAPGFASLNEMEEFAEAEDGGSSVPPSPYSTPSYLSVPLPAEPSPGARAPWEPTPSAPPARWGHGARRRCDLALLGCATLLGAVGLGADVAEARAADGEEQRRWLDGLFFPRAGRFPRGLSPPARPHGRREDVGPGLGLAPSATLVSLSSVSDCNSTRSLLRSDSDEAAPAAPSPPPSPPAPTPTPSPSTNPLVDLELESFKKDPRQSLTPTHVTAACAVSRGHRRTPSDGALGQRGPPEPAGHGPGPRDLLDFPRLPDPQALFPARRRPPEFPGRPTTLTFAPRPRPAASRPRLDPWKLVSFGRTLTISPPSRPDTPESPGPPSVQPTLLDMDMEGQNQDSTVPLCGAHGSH
Sequence of Cyclin-dependent kinase 5/CDK5 activator 1 (Homo sapiens) (Q00535 whole entry): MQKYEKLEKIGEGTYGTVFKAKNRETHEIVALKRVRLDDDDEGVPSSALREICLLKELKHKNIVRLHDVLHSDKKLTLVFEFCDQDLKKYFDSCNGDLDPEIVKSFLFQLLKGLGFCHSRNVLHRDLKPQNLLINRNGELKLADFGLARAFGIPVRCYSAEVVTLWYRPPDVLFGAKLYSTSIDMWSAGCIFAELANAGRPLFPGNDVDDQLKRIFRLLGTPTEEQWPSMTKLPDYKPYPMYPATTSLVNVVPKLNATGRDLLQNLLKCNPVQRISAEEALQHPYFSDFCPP
Sequence of Cyclin-dependent kinase 5/CDK5 activator 1 (Homo sapiens) (Q15078 99-307 partner limits assumed): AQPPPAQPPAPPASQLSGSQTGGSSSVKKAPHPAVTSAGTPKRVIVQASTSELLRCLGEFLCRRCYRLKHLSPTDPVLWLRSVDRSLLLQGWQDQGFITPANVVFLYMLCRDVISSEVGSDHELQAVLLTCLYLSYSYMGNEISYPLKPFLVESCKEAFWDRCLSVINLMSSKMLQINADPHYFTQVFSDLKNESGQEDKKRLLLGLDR
Sequence of Mast/stem cell growth factor receptor Kit (Homo sapiens) (P10721 whole entry): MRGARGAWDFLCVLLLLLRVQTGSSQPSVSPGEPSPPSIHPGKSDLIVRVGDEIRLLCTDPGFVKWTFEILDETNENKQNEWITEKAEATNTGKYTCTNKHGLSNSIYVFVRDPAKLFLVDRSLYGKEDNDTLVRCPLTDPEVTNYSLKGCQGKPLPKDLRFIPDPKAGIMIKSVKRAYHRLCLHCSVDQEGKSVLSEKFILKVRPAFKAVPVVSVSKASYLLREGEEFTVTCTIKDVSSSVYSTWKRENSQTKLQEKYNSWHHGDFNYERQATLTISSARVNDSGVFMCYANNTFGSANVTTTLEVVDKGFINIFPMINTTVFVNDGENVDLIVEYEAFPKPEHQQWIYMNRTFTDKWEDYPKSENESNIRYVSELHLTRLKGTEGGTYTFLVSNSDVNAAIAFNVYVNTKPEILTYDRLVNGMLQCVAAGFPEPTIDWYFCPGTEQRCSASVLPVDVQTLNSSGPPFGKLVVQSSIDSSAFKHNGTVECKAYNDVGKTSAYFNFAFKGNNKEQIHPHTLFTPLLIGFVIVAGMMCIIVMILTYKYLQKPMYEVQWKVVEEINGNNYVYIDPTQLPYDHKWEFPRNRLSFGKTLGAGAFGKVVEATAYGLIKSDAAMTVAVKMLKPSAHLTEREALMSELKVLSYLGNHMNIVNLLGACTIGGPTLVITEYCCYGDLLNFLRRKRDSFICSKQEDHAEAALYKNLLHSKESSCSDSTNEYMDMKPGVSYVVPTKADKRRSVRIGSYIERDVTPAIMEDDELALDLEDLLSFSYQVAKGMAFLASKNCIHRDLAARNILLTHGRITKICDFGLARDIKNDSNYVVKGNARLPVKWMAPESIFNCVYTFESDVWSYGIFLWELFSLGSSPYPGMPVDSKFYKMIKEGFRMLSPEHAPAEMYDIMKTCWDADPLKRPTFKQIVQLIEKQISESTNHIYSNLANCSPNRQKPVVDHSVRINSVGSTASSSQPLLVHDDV
Sequence of Cyclin-dependent kinase 14 (Homo sapiens) (O94921 whole entry): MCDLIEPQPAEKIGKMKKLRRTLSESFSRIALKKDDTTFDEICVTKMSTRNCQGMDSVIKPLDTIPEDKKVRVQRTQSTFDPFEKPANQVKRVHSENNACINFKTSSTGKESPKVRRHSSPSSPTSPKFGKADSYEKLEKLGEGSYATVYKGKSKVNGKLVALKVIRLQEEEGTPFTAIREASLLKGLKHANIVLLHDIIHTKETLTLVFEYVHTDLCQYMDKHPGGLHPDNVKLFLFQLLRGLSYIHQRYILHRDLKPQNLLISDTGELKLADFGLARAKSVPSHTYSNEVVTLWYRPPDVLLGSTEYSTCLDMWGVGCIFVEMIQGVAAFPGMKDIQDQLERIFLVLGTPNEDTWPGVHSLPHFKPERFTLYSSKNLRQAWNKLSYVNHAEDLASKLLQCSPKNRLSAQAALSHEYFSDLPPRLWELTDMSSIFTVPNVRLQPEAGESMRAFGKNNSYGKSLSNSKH

In the case of `CS(=O)(=O)c1cccc(Nc2nccc(-c3sc(N4CCOCC4)nc3-c3cccc(NS(=O)(=O)c4c(F)cccc4F)c3)n2)c1`, the inhibition worked out at 11% in [1]; 43.5% in test [2]; 95.8% in test [3]; 50.9% in [4]; 8.74% in test [5]; 75.7% in [6]. The inhibition is 88% in [7], 102% in test [8], 92.6% in test [9] and 77.7% in test [10].

`CC(C)(C)c1cc(NC(=O)Nc2ccc(Oc3ccncc3)cc2)no1`: the inhibition stood at 9.91% in [1]; 51.4% in [2]; 93.7% in test [3]; 86.7% in test [4]; 13.5% in test [5]; 67.3% in test [6]. Also, the inhibition in test [7] came out at 6.23%; in [8] it was 39.5%; in [9], 49.4%; in [10], 84.9%.

Consider `COCCNC(=O)c1ccc2c(c1)nc(-c1cnc(-c3ccc(Cl)cc3)[nH]1)n2CCOC`, for which the inhibition was 3.53% in [1]; 18.1% in [2]; 31.7% in test [3]; -3.92% in test [4]; 7.54% in [5]; 7.06% in test [6]. Also, the inhibition in test [7] is 7.68%; in test [8], 8.79%; in test [9], 1.93%; in [10], 5.79%.
